Where a name gives a salt, the structure may show the parent alone.
Molecular target: NMDA receptor
Test: [3H] MK-801 binding test on rat brain membrane specimen
Conditions: read-out: Ki (NMDA receptor affinity)
Description: 1) Preparation of Specimens of Rat Meninges:
The whole brain was taken out from 30 10-week SD rats (Nippon SLC), and the cerebellum was removed from them. A 0.32 M sucrose solution was added to the part containing the cerebrum, cut in a mixer, and homogenized with a Teflon™ (trademark) homogenizer. This was centrifuged at 2800 rpm and 4° C. for 15 minutes, and the resulting supernatant was again centrifuged at 15000 g and 4° C. for 20 minutes. The pellets were suspended in 50 mM Tris-HCL (pH 7.5) containing 0.08% Triton X-100, and kept statically on ice for 30 minutes, then centrifuged at 15000 g and 4° C. for 20 minutes. The pellets were suspended in 50 mM Tris-HCl (pH 7.5) added thereto, and centrifuged at 15000 g and 4° C. for 20 minutes. 50 mM Tris-HCl (pH 7.5) was again added to the pellets, and centrifuged in the same manner as before. The pellets were suspended in 20 ml of 50 mM Tris-HCl (pH 7.5) added thereto, and homogenized with the Teflon™ (trademark) homogenizer. The membrane specimen was divided into small tubes and stored in a deep freezer (−80° C.). Before use, this was washed twice with 5 mM Tris-HCl (pH 7.5) of five times that of the membrane specimen. Its concentration was controlled at 1 mg protein/ml with 5 mM Tris-HCl (pH 7.5) added to it, and this was used for assay.
2) [^3H] MK-801 Binding Assay:
50 μl of the rat membrane specimen (1 mg protein/ml) was added to a solution of a test compound dissolved in 1 μl of DMSO.

Row | Compound | Ki
1 | CCC1(CC)Cc2ccccc2C1(N)c1ccccc1 (stereo not drawn) [Example 2] | 400 nM
2 | CNC1(c2ccccc2)c2ccccc2CC1(C)C (stereo not drawn) [Example 10, N,2,2-trimethyl-1-phenylindan-1-amine hydrochloride] | 400 nM
3 | CC1(C)Cc2ccccc2C1(N)c1ccc(F)cc1 (stereo not drawn) [Example 17, 1-(4-Fluorophenyl)-2,2-dimethylindan-1-amine monofumarate] | 800 nM
4 | COc1ccccc1C1(N)c2ccccc2CC1(C)C (stereo not drawn) [Example 18, 1-(2-Methoxyphenyl)-2,2-dimethylindan-1-amine hydrochloride] | 300 nM
5 | CC1(C)Cc2ccccc2C1(N)c1cccc(O)c1 (stereo not drawn) [Example 21, 1-(3-Hydroxyphenyl)-2,2-dimethylindan-1-amine] | 100 nM
6 | CC1(C)Cc2ccccc2C1(C)N (stereo not drawn) [Example 23, 1,2,2-Trimethylindan-1-amine hydrochloride] | 900 nM
7 | Cc1ccc2c(c1)C(C)(N)C(C)(C)C2 (stereo not drawn) [Example 36, 1,2,2,6-Tetramethylindan-1-amine hydrochloride] | 400 nM
8 | COc1ccc2c(c1)C(C)(N)C(C)(C)C2 (stereo not drawn) [Example 38, 6-Methoxy-1,2,2-trimethylindan-1-amine hydrochloride] | 300 nM
9 | CC1(C)Cc2ccc(F)cc2C1(C)N (stereo not drawn) [Example 41, 6-Fluoro-1,2,2-trimethylindan-1-amine hydrochloride] | 800 nM
10 | CC1(C)Cc2ccc(Br)cc2C1(C)N (stereo not drawn) [Example 42, 6-Bromo-1,2,2,-trimethylindan-1-amine hydrochloride] | 300 nM
11 | CC1(C)Cc2ccc(C(F)(F)F)cc2C1(C)N (stereo not drawn) [Example 43, 6-Trifluoromethyl-1,2,2-trimethylindan-1-amine hydrochloride] | 300 nM
12 | CC1(C)Cc2ccc(C#N)cc2C1(C)N (stereo not drawn) [Example 44, 6-Cyano-1,2,2-trimethylindan-1-amine hydrochloride] | 600 nM
13 | CC1(C)Cc2cccc(F)c2C1(C)N (stereo not drawn) [Example 48, 7 Fluoro-1,2,2-trimethylindan-1-amine hydrochloride] | 600 nM
14 | CCC1(N)c2cccc(C)c2CC1(C)C (stereo not drawn) [Example 59] | 900 nM
15 | CCCCC1(N)c2ccccc2CC1(C)C (stereo not drawn) [Example 61] | 500 nM

From patent US8013018B2, “Aminoindane derivative or salt thereof” (Astellas Pharma Inc., priority 2006, dated 2011)
